# Columns and labels:
# [1] = Oral bioavailability in monkey; format: ADME, organism-based, Macaca mulatta; settings: rhesus monkey, in vivo
# [2] = Half life in monkey; format: ADME, organism-based, Macaca mulatta; settings: rhesus monkey, in vivo
# [3] = Oral bioavailability in Sprague-Dawley rat at 1.1 mg/kg; format: ADME, organism-based; settings: in vivo
# Rattus norvegicus [4] = experiment: (§1) Volume of distribution at steady state in Sprague-Dawley rat at 1.1 mg/kg, iv; format: ADME, organism-based; set-up: dose 1.1 mg/kg, route intravenous; settings: in vivo
# Rattus norvegicus [5] = experiment: (§2) Half life in Sprague-Dawley rat at 1.1 mg/kg, iv; format: ADME, organism-based; set-up: dose 1.1 mg/kg, route intravenous; settings: in vivo
# Cytochrome P450 2C9 = Cytochrome P450 2C9 (Homo sapiens, UniProt P11712); experiment: Inhibition of CYP2C9; format: ADME
# Cytochrome P450 2D6 = Cytochrome P450 2D6 (Homo sapiens, UniProt P10635); experiment: Inhibition of CYP2D6; format: ADME
# Aorta = experiment: Inhibition of phenylephrine-induced aortic ring contraction in Sprague-Dawley rat; format: functional, tissue-based
# [6] = target: Ribosomal protein S6 kinase beta-1 (Homo sapiens, UniProt P23443); experiment: Inhibition of p70S6K
# [7] = target: Ribosomal protein S6 kinase alpha-1 (Homo sapiens, UniProt Q15418); experiment: Inhibition of RSK1
# [8] = target: Rho-associated protein kinase 1 (Homo sapiens, UniProt Q13464); experiment: Inhibition of human recombinant ROCK1 kinase expressed in insect Sf9 cells by SPA
# Rattus norvegicus [9] = experiment: Decrease in mean arterial pressure in conscious spontaneous hypertensive rat model at 30 mg/kg, po
# Cytochrome P450 3A4 = Cytochrome P450 3A4 (Homo sapiens, UniProt P08684); experiment: Inhibition of CYP3A4; format: ADME
# [10] = Oral bioavailability in Sprague-Dawley rat at 1.2 mg/kg; format: ADME, organism-based; settings: in vivo
# [11] = Volume of distribution at steady state in Sprague-Dawley rat at 1.3 mg/kg, iv; format: ADME, organism-based; set-up: dose 1.3 mg/kg, route intravenous; settings: in vivo, read-out: Vdss
# [12] = Clearance in Sprague-Dawley rat at 1.3 mg/kg, iv; format: ADME, organism-based; set-up: dose 1.3 mg/kg, route intravenous; settings: in vivo
# [13] = Half life in Sprague-Dawley rat at 1.3 mg/kg, iv; format: ADME, organism-based; set-up: dose 1.3 mg/kg, route intravenous; settings: in vivo
# [14] = as §1; format: ADME, organism-based; set-up: dose 1.1 mg/kg, route intravenous; settings: Sprague-Dawley, in vivo, read-out: Vdss
# [15] = as §2; format: ADME, organism-based; set-up: dose 1.1 mg/kg, route intravenous; settings: Sprague-Dawley, in vivo
# [16] = Clearance in Sprague-Dawley rat at 1.1 mg/kg, iv; format: ADME, organism-based; set-up: dose 1.1 mg/kg, route intravenous; settings: in vivo
# [17] = Volume of distribution at steady state in Sprague-Dawley rat at 1.2 mg/kg, iv; format: ADME, organism-based; set-up: dose 1.2 mg/kg, route intravenous; settings: in vivo, read-out: Vdss
# [18] = Half life in Sprague-Dawley rat at 1.2 mg/kg, iv; format: ADME, organism-based; set-up: dose 1.2 mg/kg, route intravenous; settings: in vivo
# [19] = Clearance in Sprague-Dawley rat at 1.2 mg/kg, iv; format: ADME, organism-based; set-up: dose 1.2 mg/kg, route intravenous; settings: in vivo
# [20] = Oral bioavailability in Sprague-Dawley rat at 1.8 mg/kg; format: ADME, organism-based; settings: in vivo
# [21] = Volume of distribution at steady state in Sprague-Dawley rat at 1.8 mg/kg, iv; format: ADME, organism-based; set-up: dose 1.8 mg/kg, route intravenous; settings: in vivo, read-out: Vdss
# [22] = Half life in Sprague-Dawley rat at 1.8 mg/kg, iv; format: ADME, organism-based; set-up: dose 1.8 mg/kg, route intravenous; settings: in vivo
# [23] = Clearance in Sprague-Dawley rat at 1.8 mg/kg, iv; format: ADME, organism-based; set-up: dose 1.8 mg/kg, route intravenous; settings: in vivo
# Sequence of Rho-associated protein kinase 1 (Q13464 whole entry): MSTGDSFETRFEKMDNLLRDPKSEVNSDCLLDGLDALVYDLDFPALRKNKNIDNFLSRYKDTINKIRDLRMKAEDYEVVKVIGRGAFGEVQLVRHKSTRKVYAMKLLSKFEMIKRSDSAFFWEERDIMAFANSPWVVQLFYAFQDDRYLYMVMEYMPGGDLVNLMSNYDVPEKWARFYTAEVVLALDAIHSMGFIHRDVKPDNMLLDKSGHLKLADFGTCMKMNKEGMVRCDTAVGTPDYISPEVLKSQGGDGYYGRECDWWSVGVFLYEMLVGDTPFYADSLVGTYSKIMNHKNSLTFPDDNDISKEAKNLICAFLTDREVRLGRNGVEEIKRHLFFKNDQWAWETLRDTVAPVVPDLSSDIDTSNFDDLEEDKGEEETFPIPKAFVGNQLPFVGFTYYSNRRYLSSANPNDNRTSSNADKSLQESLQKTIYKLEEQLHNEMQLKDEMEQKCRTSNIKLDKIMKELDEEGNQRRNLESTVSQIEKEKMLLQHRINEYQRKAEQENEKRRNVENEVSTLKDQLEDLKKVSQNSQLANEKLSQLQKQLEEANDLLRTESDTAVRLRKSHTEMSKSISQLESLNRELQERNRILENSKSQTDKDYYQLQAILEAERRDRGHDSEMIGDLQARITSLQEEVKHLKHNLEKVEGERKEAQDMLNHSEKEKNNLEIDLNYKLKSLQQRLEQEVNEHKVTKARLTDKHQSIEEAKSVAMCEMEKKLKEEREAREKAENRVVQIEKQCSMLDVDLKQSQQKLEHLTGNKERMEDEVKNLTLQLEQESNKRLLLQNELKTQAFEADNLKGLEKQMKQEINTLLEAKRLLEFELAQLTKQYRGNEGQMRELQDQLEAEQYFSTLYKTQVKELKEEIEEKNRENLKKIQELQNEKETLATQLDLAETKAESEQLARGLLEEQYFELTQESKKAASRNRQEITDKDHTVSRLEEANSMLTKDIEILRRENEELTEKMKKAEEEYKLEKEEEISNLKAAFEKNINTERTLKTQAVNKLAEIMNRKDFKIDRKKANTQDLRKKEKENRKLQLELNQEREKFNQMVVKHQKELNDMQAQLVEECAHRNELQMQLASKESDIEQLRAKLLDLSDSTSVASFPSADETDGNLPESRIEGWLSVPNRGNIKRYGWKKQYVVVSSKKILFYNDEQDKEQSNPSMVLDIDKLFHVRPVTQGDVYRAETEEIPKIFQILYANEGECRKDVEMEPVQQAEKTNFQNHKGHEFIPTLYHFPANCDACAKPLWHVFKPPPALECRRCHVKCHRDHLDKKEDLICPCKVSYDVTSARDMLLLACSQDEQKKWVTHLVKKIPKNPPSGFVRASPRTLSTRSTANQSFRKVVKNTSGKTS
# Sequence of Ribosomal protein S6 kinase beta-1 (P23443 whole entry): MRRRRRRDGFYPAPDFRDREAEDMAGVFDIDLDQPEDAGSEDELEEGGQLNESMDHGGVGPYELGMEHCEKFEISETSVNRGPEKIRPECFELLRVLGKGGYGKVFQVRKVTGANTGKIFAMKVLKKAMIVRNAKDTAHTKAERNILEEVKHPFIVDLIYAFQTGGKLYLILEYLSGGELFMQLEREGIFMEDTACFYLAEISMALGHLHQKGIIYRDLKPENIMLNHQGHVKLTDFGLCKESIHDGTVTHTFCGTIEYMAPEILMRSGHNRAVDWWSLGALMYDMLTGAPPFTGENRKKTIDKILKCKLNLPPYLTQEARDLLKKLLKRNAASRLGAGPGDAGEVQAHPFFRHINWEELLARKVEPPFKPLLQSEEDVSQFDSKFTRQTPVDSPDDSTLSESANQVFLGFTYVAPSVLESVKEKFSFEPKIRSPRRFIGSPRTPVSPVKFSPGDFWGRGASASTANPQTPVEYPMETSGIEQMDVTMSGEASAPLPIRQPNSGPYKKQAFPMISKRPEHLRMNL
# Sequence of Ribosomal protein S6 kinase alpha-1 (Q15418 whole entry): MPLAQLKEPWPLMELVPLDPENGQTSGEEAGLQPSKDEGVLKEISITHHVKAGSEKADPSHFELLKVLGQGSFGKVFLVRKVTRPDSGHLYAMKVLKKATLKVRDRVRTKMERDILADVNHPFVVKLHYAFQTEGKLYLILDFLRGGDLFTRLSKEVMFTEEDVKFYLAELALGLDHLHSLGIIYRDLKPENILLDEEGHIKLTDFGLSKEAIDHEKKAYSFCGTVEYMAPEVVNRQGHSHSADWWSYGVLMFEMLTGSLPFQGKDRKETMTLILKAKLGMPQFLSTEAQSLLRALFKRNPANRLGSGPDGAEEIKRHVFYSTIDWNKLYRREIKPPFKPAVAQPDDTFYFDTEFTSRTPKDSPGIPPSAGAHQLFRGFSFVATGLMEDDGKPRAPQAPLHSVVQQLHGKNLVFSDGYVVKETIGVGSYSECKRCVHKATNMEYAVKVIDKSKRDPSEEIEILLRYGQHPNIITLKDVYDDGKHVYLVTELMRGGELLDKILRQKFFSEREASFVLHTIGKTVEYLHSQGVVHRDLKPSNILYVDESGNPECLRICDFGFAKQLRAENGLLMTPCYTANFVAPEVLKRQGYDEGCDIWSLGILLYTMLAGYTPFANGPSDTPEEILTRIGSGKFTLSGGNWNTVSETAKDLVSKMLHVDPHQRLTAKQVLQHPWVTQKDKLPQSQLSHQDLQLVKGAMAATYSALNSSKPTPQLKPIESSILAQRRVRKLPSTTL
# Sequence of Cytochrome P450 2C9 (P11712 whole entry): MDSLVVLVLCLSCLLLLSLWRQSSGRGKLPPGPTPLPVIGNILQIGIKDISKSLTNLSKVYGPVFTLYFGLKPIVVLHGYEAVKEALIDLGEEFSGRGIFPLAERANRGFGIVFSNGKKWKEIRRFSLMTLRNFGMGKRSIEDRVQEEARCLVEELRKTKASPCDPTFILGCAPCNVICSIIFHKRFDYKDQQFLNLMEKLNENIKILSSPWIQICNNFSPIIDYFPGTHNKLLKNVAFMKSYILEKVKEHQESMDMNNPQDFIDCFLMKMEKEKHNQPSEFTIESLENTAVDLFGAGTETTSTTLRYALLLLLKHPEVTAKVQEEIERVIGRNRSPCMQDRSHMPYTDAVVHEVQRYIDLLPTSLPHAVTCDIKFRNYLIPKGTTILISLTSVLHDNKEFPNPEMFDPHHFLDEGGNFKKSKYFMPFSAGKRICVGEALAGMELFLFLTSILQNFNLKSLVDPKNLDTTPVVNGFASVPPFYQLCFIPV
# Sequence of Cytochrome P450 3A4 (P08684 whole entry): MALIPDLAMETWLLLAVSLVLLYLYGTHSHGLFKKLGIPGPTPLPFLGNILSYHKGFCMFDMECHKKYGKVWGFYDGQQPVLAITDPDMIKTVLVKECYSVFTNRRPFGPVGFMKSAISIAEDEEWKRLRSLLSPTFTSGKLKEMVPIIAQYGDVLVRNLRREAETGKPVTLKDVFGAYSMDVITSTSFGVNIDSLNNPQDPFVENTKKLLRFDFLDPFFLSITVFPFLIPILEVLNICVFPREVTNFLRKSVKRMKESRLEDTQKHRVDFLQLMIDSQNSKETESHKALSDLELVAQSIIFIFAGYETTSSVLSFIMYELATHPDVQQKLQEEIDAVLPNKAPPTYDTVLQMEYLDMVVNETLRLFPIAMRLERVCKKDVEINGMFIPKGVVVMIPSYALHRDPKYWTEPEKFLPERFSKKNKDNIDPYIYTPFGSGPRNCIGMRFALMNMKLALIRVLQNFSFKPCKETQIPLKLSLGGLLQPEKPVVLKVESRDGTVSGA
# Sequence of Cytochrome P450 2D6 (P10635 whole entry): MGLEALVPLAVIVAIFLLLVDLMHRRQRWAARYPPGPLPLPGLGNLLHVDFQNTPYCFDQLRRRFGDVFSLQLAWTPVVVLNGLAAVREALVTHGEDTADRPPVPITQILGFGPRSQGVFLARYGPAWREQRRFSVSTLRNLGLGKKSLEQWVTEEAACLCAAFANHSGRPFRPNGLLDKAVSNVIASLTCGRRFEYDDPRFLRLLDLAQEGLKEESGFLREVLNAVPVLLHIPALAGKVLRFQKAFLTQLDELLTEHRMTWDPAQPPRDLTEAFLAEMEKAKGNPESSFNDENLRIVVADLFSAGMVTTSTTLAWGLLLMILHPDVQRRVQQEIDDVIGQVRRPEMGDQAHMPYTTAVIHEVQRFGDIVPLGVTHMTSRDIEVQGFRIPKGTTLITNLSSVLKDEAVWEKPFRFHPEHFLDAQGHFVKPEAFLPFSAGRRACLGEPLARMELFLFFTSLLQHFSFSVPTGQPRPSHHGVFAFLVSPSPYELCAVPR
smiles,measurement,setting,value
CC1=C(C(=O)Nc2cc3cn[nH]c3cc2F)C(c2ccc(Cl)cc2F)N=C(c2ccnc(Cl)c2)N1 (configuration not stated),bioavailability,[1],19%
same,half-life,[2],2.2 h
same,bioavailability,[3],49%
same,Vdss,Rattus norvegicus [4],2 L/kg
same,t1/2,Rattus norvegicus [5],1.75 h
same,IC50,Cytochrome P450 2C9,2500 nM
same,IC50,Cytochrome P450 2D6,5200 nM
same,IC50,Aorta,256 nM
same,IC50,[6],1000 nM
same,IC50,[7],398 nM
same,IC50,[8],6 nM
same,Activity,Rattus norvegicus [9],25 mmHg
CC1=C(C(=O)Nc2ccc3[nH]ncc3c2)C(c2ccc(Cl)cc2F)N=C(c2ccnc(Cl)c2)N1 (configuration not stated),bioavailability,[3],7%
same,Vdss,Rattus norvegicus [4],1.6 L/kg
same,t1/2,Rattus norvegicus [5],1.03 h
same,IC50,Cytochrome P450 3A4,5500 nM
same,IC50,Cytochrome P450 2D6,5700 nM
same,IC50,[8],4 nM
CC1=C(C(=O)Nc2ccc3[nH]ncc3c2)C(c2ccc(F)cc2)N=C(c2ccc(C)c(F)c2)N1 (configuration not stated),IC50,[8],104 nM
CC1=C(C(=O)Nc2ccc3[nH]ncc3c2)C(c2ccc(F)cc2)N=C(c2ccncc2)N1 (configuration not stated),bioavailability,[10],0%
same,IC50,[8],8 nM
CC1=C(C(=O)Nc2ccc3[nH]ncc3c2)C(c2ccc(F)cc2)NC(=O)N1 (configuration not stated) [GSK-180736A],Vd,[11],2.2 L/kg
same,clearance,[12],49 mL/min/kg
same,half-life,[13],0.7 h
same,IC50,Aorta,760 nM
CC1=C(C(=O)Nc2ccc3[nH]ncc3c2)C(c2ccc(F)cc2)N=C(c2cccc(C(F)(F)F)c2)N1 (configuration not stated),IC50,[8],288 nM
COc1ccc(C2=NC(C)C(C(=O)Nc3ccc4[nH]ncc4c3)=C(C)N2)cc1 (configuration not stated),IC50,[8],863 nM
CC1=C(C(=O)Nc2cc3cn[nH]c3cc2F)C(c2ccc(Cl)cc2F)N=C(c2ccnc(C)c2)N1 (configuration not stated),IC50,[8],10 nM
CC1=C(C(=O)Nc2ccc3[nH]ncc3c2)C(c2ccc(F)cc2)N=C(c2ccc(C(F)(F)F)nc2)N1 (configuration not stated) [GSK-317354A],IC50,[8],75 nM
CC1=C(C(=O)Nc2ccc3[nH]nc(C)c3c2)C(c2ccc(Cl)cc2F)N=C(c2ccnc(Cl)c2)N1 (configuration not stated),IC50,[8],15 nM
CC1=C(C(=O)Nc2ccc3[nH]ncc3c2)C(c2ccc(F)cc2)N=C(c2ccccn2)N1 (configuration not stated),IC50,[8],180 nM
CC1=C(C(=O)Nc2ccc3[nH]ncc3c2)C(c2ccc(F)cc2)N=C(c2ccc(C)cc2)N1 (configuration not stated),IC50,[8],101 nM
COc1ccc(C2=NC(c3ccc(S(N)(=O)=O)cc3)C(C(=O)Nc3ccc4[nH]ncc4c3)=C(C)N2)cc1 (configuration not stated),IC50,[8],68 nM
CC1=C(C(=O)Nc2ccc3[nH]ncc3c2)C(c2ccc(F)cc2)N=C(c2ccc(Cl)cc2)N1 (configuration not stated),IC50,[8],129 nM
CCOc1cc(C2=NC(c3ccc(Cl)cc3F)C(C(=O)Nc3cc4cn[nH]c4cc3F)=C(C)N2)ccn1 (configuration not stated),IC50,[8],11 nM
COc1ccc(C2=NC(c3ccc(Cl)cc3F)C(C(=O)Nc3ccc4[nH]ncc4c3)=C(C)N2)cn1 (configuration not stated),bioavailability,[3],27%
same,IC50,Cytochrome P450 3A4,2500 nM
same,IC50,Cytochrome P450 2D6,1200 nM
same,IC50,[8],3 nM
COc1ccc(C2=NC(c3ccc(Cl)cc3F)C(C(=O)Nc3ccc4[nH]ncc4c3)=C(C)N2)cc1 (configuration not stated),bioavailability,[3],58%
same,Vd,[14],6.46 L/kg
same,half-life,[15],1.13 h
same,clearance,[16],108 mL/min/kg
same,IC50,Cytochrome P450 3A4,2700 nM
same,IC50,Cytochrome P450 2D6,200 nM
same,IC50,Aorta,200 nM
same,IC50,[6],2100 nM
same,IC50,[7],510 nM
same,IC50,[8],5 nM
CC1=C(C(=O)Nc2ccc3[nH]ncc3c2)C(c2ccc(F)cc2)N=C(c2cccc(C)c2)N1 (configuration not stated),IC50,[8],129 nM
COc1cc(C2=NC(c3ccc(Cl)cc3F)C(C(=O)Nc3ccc4[nH]ncc4c3)=C(C)N2)ccn1 (configuration not stated),bioavailability,[3],21%
same,Vdss,Rattus norvegicus [4],2 L/kg
same,t1/2,Rattus norvegicus [5],0.567 h
same,IC50,Cytochrome P450 3A4,4300 nM
same,IC50,Cytochrome P450 2D6,3700 nM
same,IC50,[8],2 nM
COc1ccc(C2=NC(c3ccc(C(F)(F)F)cc3F)C(C(=O)Nc3ccc4[nH]ncc4c3)=C(C)N2)cc1 (configuration not stated),IC50,[8],26 nM
COc1cc(C2=NC(c3ccc(Cl)cc3F)C(C(=O)Nc3cc4cn[nH]c4cc3F)=C(C)N2)ccn1 (configuration not stated),bioavailability,[3],53%
same,Vdss,Rattus norvegicus [4],2.5 L/kg
same,t1/2,Rattus norvegicus [5],0.767 h
same,IC50,Cytochrome P450 3A4,5300 nM
same,IC50,Cytochrome P450 2C9,8400 nM
same,IC50,Cytochrome P450 2D6,2100 nM
same,IC50,[8],6 nM
COc1ccc(C2=NC(c3ccc(F)cc3)C(C(=O)Nc3ccc4[nH]ncc4c3)=C(C)N2)cc1 (configuration not stated),bioavailability,[10],35%
same,Vd,[17],5.1 L/kg
same,half-life,[18],2.82 h
same,clearance,[19],55 mL/min/kg
same,IC50,[8],46 nM
COc1ccc(C2=NC(c3ccc(S(C)(=O)=O)cc3)C(C(=O)Nc3ccc4[nH]ncc4c3)=C(C)N2)cc1 (configuration not stated),IC50,[8],150 nM
CC1=C(C(=O)Nc2ccc3[nH]ncc3c2)C(c2ccc(F)cc2)N=C(c2ccccc2)N1 (configuration not stated),bioavailability,[20],16%
same,Vd,[21],0.8 L/kg
same,half-life,[22],1 h
same,clearance,[23],15 mL/min/kg
same,IC50,Cytochrome P450 3A4,350 nM
same,IC50,Cytochrome P450 2C9,640 nM
same,IC50,Cytochrome P450 2D6,90 nM
same,IC50,Aorta,1300 nM
same,IC50,[6],4500 nM
same,IC50,[7],5300 nM
same,IC50,[8],105 nM
CC1=C(C(=O)Nc2ccc3[nH]ncc3c2)C(c2ccc(F)cc2)N=C(c2cnccn2)N1 (configuration not stated),IC50,[8],105 nM

# Reference: ChEMBL document CHEMBL1142520, “Potent, selective and orally bioavailable dihydropyrimidine inhibitors of Rho kinase (ROCK1) as potential therapeutic agents for cardiovascular diseases” (J Med Chem, 2008)
